For 26 compounds, MIC, IC50 and inhibition results are on record in ChEMBL document CHEMBL5579862, “Development of Novel Bacterial Topoisomerase Inhibitors Assisted by Computational Screening” (ACS Med Chem Lett, 2024).

Assay [1] relates to Staphylococcus aureus. Briefly: Antibacterial activity against methicillin resistant Staphylococcus aureus USA300. The class given is functional.
The test system of assay [2] is Acinetobacter baumannii. Briefly: Antibacterial activity against Acinetobacter baumannii ATCC 19606. The class given is functional.
For assay [3], the target named is DNA gyrase (Staphylococcus aureus, UniProt P0A0K8+P20831). In words: Inhibition of Staphylococcus aureus DNA gyrase using relaxed pBR322 DNA as substrate incubated for 30 mins by ethidium bromide staining based agarose gel electrophoresis method. Format: protein-complex assay.
Assay [4] has as its target Topoisomerase IV (Staphylococcus aureus, UniProt P0C1S7+P0C1U9). In words: Inhibition of Staphylococcus aureus topoisomerase-IV assessed as reduction in decatenation using kinetoplast DNA as substrate incubated for 20 mins by ethidium bromide staining based agarose gel electrophoresis method. Format: protein-complex assay.
For assay [5], the target named is DNA gyrase (Escherichia coli, UniProt P0AES4+P0AES6). Briefly: Inhibition of Escherichia coli DNA gyrase using relaxed pBR322 DNA as substrate incubated at 37 degreeC for 30 to 45 mins followed by incubation at 75 degreeC for 10 mins by ethidium bromide staining based agarose gel electrophoresis method. Format: protein-complex assay.
Assay [6] deals with T1, Topoisomerase IV (Staphylococcus aureus) (UniProt P0C1U9+P0C1S7). Briefly: Inhibition of Staphylococcus aureus DNA topoisomerase IV assessed as accumulation of single strand breaks incubated at 37 degreeC for 30 mins followed by incubation at 45 degreeC for 30 mins by ethidium bromide based agarose gel electrophoresis. The class given is protein-complex assay. The conditions noted are these: time 60.0 min.

For assay [7], the target named is T1, Topoisomerase IV (Staphylococcus aureus). Briefly: Inhibition of Staphylococcus aureus DNA topoisomerase IV assessed as accumulation of double strand breaks incubated at 37 degreeC for 30 mins followed by incubation at 45 degreeC for 30 mins by ethidium bromide based agarose gel electrophoresis. Format: protein-complex assay. The conditions noted are these: time 60.0 min.

The subject of assay [8] is Staphylococcus aureus. In words: Antibacterial activity against Staphylococcus aureus ATCC 29213. Format: functional.
Assay [9] has as its system Staphylococcus aureus. Briefly: Antibacterial activity against Staphylococcus aureus D83N. Format: functional.
For assay [10], the system named is Salmonella typhimurium. Briefly: Antibacterial activity against efflux deficient Salmonella typhimurium 14028 deltatolC1::kan. The class given is functional, Salmonella enterica subsp. enterica serovar Typhimurium. The note with it: Salmonella enterica.
The subject of assay [11] is Escherichia coli. Briefly: Antibacterial activity against Escherichia coli ATCC 25922. Format: functional.
The subject of assay [12] is Salmonella typhimurium. In words: Antibacterial activity against Salmonella typhimurium ATCC 14028. Format: functional, Salmonella enterica subsp. enterica serovar Typhimurium. The conditions noted are these: Salmonella enterica.
In assay [13] the target is DNA gyrase (Staphylococcus aureus) (UniProt P0A0K8+P20831). Briefly: Inhibition of Staphylococcus aureus DNA gyrase assessed as accumulation of single strand breaks at 10 uM incubated at 37 degreeC for 30 mins followed by incubation at 45 degreeC for 30 mins by ethidium bromide based agarose gel electrophoresis. The class given is protein-complex assay. The note with it: time 60.0 min.

Structures are written as SMILES. Converted amounts (≈) assume the structure as drawn. The source made the active and inactive calls. The rule behind the calls is not given here.

On to `COc1ccc2ncc(F)c(CCN3CCC([C@H](O)[C@@H](O)c4ccc(C)cc4)CC3)c2n1`, for which the minimum inhibitory concentration (MIC) – broadly, the lowest concentration found to suppress growth – in assay [1] stood at 2 µg/mL (≈ 4.55 µM); in [2], 32 µg/mL (≈ 72.8 µM).

In assay [1], `COc1ccc2ncc(F)c(CCN3CCC([C@H](O)[C@H](O)c4ccc(C)cc4)CC3)c2n1` registered an MIC of 0.13 µg/mL (≈ 0.296 µM). The results for the concentration for half-maximal inhibition (IC50) in [3], in assay [4] and in assay [5] were 0.065 µM, 3.31 µM and 17.1 µM, respectively. The inhibition – broadly, the percentage by which the read-out fell short of the control – in assay [6] is “Active”. In addition, in [7], the inhibition is < 1%.

Take `COc1ccc2ncc(F)c(CCN3CCC([C@@H](O)[C@H](O)c4ccc5c(c4)OCCO5)CC3)c2n1`: 1 µg/mL (≈ 2.07 µM) was the least that counted as inhibitory in assay [1] (MIC).

Consider `COc1ccc2ncc(F)c(CCN3CCC(/C=C\c4ccc(C)cc4)CC3)c2n1`, for which the MIC in assay [8] is 4 µg/mL (≈ 9.86 µM); in [9] it was 32 µg/mL (≈ 78.9 µM); in assay [1], 4 µg/mL (≈ 9.86 µM); in assay [10] it was 8 µg/mL (≈ 19.7 µM).

The compound `COc1ccc2ncc(F)c(CCN3CCC(C(O)Cc4ccc5c(c4)OCCO5)CC3)c2n1` (stereo not drawn) registered an MIC in assay [9] of 4 µg/mL (≈ 8.56 µM).

Regarding `COc1ccc2ncc(F)c(CCN3CCC([C@@H](O)[C@@H](O)c4ccc(C)cc4)CC3)c2n1`, the values for the MIC in [8] and in [1] were 0.13 µg/mL (≈ 0.296 µM) and 0.25 µg/mL (≈ 0.569 µM), respectively.

As for `COc1ccc2ncc(F)c(CCN3CCC(/C=C/c4ccc5c(c4)OCCO5)CC3)c2n1`, the MIC in [8] came to 0.25 µg/mL (≈ 0.556 µM); in [9] it was 2 µg/mL (≈ 4.45 µM); in [1] it was 0.5 µg/mL (≈ 1.11 µM); in [11] it was 8 µg/mL (≈ 17.8 µM); in assay [2], 8 µg/mL (≈ 17.8 µM); in assay [12], 64 µg/mL (≈ 142 µM). The same compound had an MIC in [10] of 0.125 µg/mL (≈ 0.278 µM).

`O=c1ccc2ncc(=O)n3c2n1C[C@H]3CN1CCC(NCc2cc3c(cn2)OCCC3)CC1` [GEPOTIDACIN]: the MIC was determined as 8 µg/mL (≈ 17.8 µM) in assay [9]; 1 µg/mL (≈ 2.23 µM) in [11]; 8 µg/mL (≈ 17.8 µM) in [2]; 2 µg/mL (≈ 4.46 µM) in [12]; 0.125 µg/mL (≈ 0.279 µM) in assay [10].

As to `COc1ccc2ncc(F)c(CCN3CCC([C@@H](O)[C@H](O)c4ccc5c(c4)NC(=O)CO5)CC3)c2n1`, the MIC in assay [9] was ≥ 32 µg/mL.

Regarding `COc1ccc2ncc(F)c(CCN3CCC(/C=C\c4ccc5c(c4)NC(=O)CO5)CC3)c2n1`, the MIC is ≥ 64 µg/mL in assay [8], ≥ 64 µg/mL in assay [9], 32 µg/mL (≈ 69.2 µM) in assay [2] and 16 µg/mL (≈ 34.6 µM) in assay [10].

`COc1ccc2ncc(F)c(CCN3CCC([C@@H](O)[C@@H](O)c4ccc5c(c4)OCCO5)CC3)c2n1` displayed an MIC in assay [1] of 0.03 µg/mL (≈ 0.062 µM).

As to `COc1ccc2ncc(F)c(CCN3CCC(C(=O)Cc4ccc5c(c4)OCCO5)CC3)c2n1`, the MIC in assay [8] was 4 µg/mL (≈ 8.59 µM); in assay [9], 32 µg/mL (≈ 68.7 µM); in assay [1], 4 µg/mL (≈ 8.59 µM); in [11], 64 µg/mL (≈ 137 µM); in assay [2] it was 64 µg/mL (≈ 137 µM); in assay [10], ≥ 1 µg/mL.

`COc1ccc2ncc(F)c(CCN3CCC(NCc4ccc(C)cc4)CC3)c2n1`: the MIC in assay [8] was ≤ 0.25 µg/mL; in assay [9], 16 µg/mL (≈ 39.2 µM); in [1], ≤ 0.25 µg/mL; in [11], 4 µg/mL (≈ 9.79 µM); in [2], 4 µg/mL (≈ 9.79 µM); in [12] it was 32 µg/mL (≈ 78.3 µM). In assay [10], this compound displayed an MIC of 0.5 µg/mL (≈ 1.22 µM). Besides, the values for the IC50 in assay [3] and in assay [4] were 0.004 µM and 0.69 µM, respectively. The inhibition entry in assay [6] and in assay [13] was “Active” in each case. Moreover, the inhibition in assay [7] is < 1%.

Regarding `COc1ccc2ncc(F)c(CCN3CCC(C(N)Cc4ccc5c(c4)OCCO5)CC3)c2n1` (stereo not drawn), the MIC in assay [9] is ≥ 16 µg/mL.

In the case of `COc1ccc2ncc(F)c(CCN3CCC(/C=C/c4ccc5c(c4)NC(=O)CO5)CC3)c2n1`, the MIC is 0.5 µg/mL (≈ 1.08 µM) in assay [8]; 16 µg/mL (≈ 34.6 µM) in [9]; ≤ 0.25 µg/mL in assay [1]; 8 µg/mL (≈ 17.3 µM) in assay [2]; 16 µg/mL (≈ 34.6 µM) in assay [12]; 0.25 µg/mL (≈ 0.541 µM) in assay [10].

The compound `COc1ccc2ncc(F)c(CCN3CCC([C@H](O)[C@@H](O)c4ccc5c(c4)NC(=O)CO5)CC3)c2n1` displayed an MIC in assay [10] of 0.25 µg/mL (≈ 0.503 µM).

`COc1ccc2ncc(F)c(CCN3CCC([C@H](O)[C@H](O)c4ccc5c(c4)OCCO5)CC3)c2n1`: the MIC in [8] is ≤ 0.13 µg/mL.

As to `COc1ccc2ncc(F)c(CCN3CCC(CCc4ccc5c(c4)OCCO5)CC3)c2n1`, the results for the MIC in assay [9] and in assay [10] were 8 µg/mL (≈ 17.7 µM) and 0.25 µg/mL (≈ 0.554 µM), respectively.

For `COc1ccc2ncc(F)c(CCN3CCC(C(O)Cc4ccc(C)cc4)CC3)c2n1` (stereo not drawn), the figures for the MIC in assay [9], in assay [1] and in assay [10] were 8 µg/mL (≈ 18.9 µM), 0.25 µg/mL (≈ 0.59 µM) and 1 µg/mL (≈ 2.36 µM), respectively. Also, the IC50 (commonly the concentration needed to halve the response being measured) was 0.24 µM in assay [3], 2.29 µM in [4] and 12.4 µM in [5]. Besides, in assay [6], the inhibition entry is “Active”. Besides, the inhibition in [7] is < 1%.

As for `COc1ccc2ncc(F)c(CCN3CCC(C(=O)Cc4ccc5c(c4)NC(=O)CO5)CC3)c2n1`, the MIC was ≤ 0.13 µg/mL in [8], 2 µg/mL (≈ 4.18 µM) in assay [11], 4 µg/mL (≈ 8.36 µM) in assay [2] and 16 µg/mL (≈ 33.4 µM) in [12].

`COc1ccc2ncc(F)c(CCN3CCC(C(N)Cc4ccc(C)cc4)CC3)c2n1` (stereo not drawn) had an MIC in [9] of 32 µg/mL (≈ 75.7 µM). Moreover, the IC50 was 5.05 µM in assay [3], 82.6 µM in [4] and > 400 µM in [5]. The inhibition result in assay [6] and in [13] was “Active” in each case. In addition, the inhibition in [7] was < 1%.

`COc1ccc2ncc(F)c(CCN3CCC(C(O)Cc4ccc5c(c4)OCC(=O)N5)CC3)c2n1` (stereo not drawn): the MIC in assay [10] was found to be 0.125 µg/mL (≈ 0.26 µM).

For `COc1ccc2ncc(F)c(CCN3CCC(CCc4ccc(C)cc4)CC3)c2n1`, the MIC in assay [9] was 4 µg/mL (≈ 9.82 µM); in assay [12], ≥ 64 µg/mL.

Turning to `COc1ccc2ncc(F)c(CCN3CCC([C@@H](O)[C@H](O)c4ccc(C)cc4)CC3)c2n1`, the MIC in assay [1] was determined as 2 µg/mL (≈ 4.55 µM); in [10], 0.5 µg/mL (≈ 1.14 µM).

Turning to `COc1ccc2ncc(F)c(CCN3CCC(/C=C\c4ccc5c(c4)OCCO5)CC3)c2n1`, the MIC was 8 µg/mL (≈ 17.8 µM) in assay [8]; ≥ 16 µg/mL in [9]; 8 µg/mL (≈ 17.8 µM) in assay [1]; ≥ 64 µg/mL in [11]; 64 µg/mL (≈ 142 µM) in [2]; ≥ 64 µg/mL in assay [12]. In [10], this compound gave an MIC of 4 µg/mL (≈ 8.9 µM).

With `COc1ccc2ncc(F)c(CCN3CCC(/C=C/c4ccc(C)cc4)CC3)c2n1`, the MIC in assay [8] was 0.25 µg/mL (≈ 0.616 µM); in assay [9] it was ≥ 32 µg/mL; in [12] it was ≥ 64 µg/mL; in [10], 0.5 µg/mL (≈ 1.23 µM).
